This passage reports IC50 results from patent publication US4758586A, “Indolyl compounds and hyposensitivity use thereof” (USV Pharmaceutical Corp., priority 1986, dated 1988).

For one assay, the target named is T1, 5-lipoxygenase (Rattus norvegicus, UniProt P12527).
T1 construct: A suspension of rat neutrophils in buffer; endogenous in cells; host or cells: rat neutrophils (PMN)
T1 sequence (P12527 1-673): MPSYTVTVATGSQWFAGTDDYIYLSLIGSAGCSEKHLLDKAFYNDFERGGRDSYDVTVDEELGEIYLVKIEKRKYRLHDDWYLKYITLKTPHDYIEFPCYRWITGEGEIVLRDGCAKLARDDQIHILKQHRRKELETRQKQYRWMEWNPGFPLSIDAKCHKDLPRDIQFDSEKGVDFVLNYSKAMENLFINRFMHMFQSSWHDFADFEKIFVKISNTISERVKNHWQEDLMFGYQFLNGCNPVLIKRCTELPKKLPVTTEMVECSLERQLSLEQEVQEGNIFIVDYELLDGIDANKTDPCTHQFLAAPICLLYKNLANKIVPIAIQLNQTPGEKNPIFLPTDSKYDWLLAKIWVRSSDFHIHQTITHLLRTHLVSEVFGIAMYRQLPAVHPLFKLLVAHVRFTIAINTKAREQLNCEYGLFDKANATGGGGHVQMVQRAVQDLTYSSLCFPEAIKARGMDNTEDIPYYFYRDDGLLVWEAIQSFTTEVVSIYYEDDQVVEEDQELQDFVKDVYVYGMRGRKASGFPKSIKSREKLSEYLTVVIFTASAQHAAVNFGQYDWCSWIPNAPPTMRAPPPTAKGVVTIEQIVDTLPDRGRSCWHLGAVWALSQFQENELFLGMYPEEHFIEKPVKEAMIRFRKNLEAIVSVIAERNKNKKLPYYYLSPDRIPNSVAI
Kind of assay: Protocol for detecting inhibitors of the lipoxygenase pathway (5-HETE formation in rat neutrophils). To be noted: rat PMN, [14C]-arachidonic acid + A23187, 5-HETE; read-out: LOX, (RAT PMN) I50. Type of assay: cell-based. Here is the method:
Protocol for Detecting Inhibitors of the Lipoxygenase Pathway
A suspension of rat neutrophils in buffer is incubated for 3 minutes at 30° C. with [^14 C]-arachidonic acid (AA) and Calcium Ionophore A23187. Citric acid (2M) is used to quench the reaction. Following the addition of a trace amount of (^3 H)-5-HETE together with an excess of unlabeled 5-HETE to each tube, the mixture is extracted with chloroform/methanol. The organic layer is washed with dilute acid and an aliquot is transferred to glass tubes and dried. The residue is dissolved in a small volume of chloroform and an aliquot is spotted on silica get TLC sheets, which are developed with an ethyl acetate/isooctane/water acetic acid solvent system. The 5-HETE spots are visualized with iodine, cut out and placed in scintillation vials for counting. After adjusting for the extraction efficiency, the amount (pmole) of [^14 C]-5-HETE in each of the tubes is quantitated. The net pmoles of 5-HETE are obtained by subtracting the pmoles of 5-HETE in the tubes containing […]. The ability of the test compounds to modulate the activity of this enzyme is determined by a decrease or increase in the net amount of 5-HETE produced.

The test system of a further assay is Phospholipase C (PLC). Kind of assay: In vitro assay for inhibitors of Phospholipase C (PLC) from rat platelets. Type of assay: biochemical. The note with it: read-out: PLC, I50. The text has this:
A. Protocol For In Vitro Assay For Inhibitors Of Phospholipase C (PLC)
The PLC employed in this screen is obtained by aggregation of purified rat platelets in the presence of CaCl2 and ADP. In the enzyme assay phosphatidylinositol having ^3 H -labeled arachidonate residues at R2 is employed as substrate. PLC acts by cleaving the phosphate ester bond yielding diglyceride as follows: [drawing 18]
Following completion of the reaction, the assay medium is acidified and extracted with hexane which takes up unreacted substrate and diglyceride. The hexane extract is passed over a short silica gel column which retains 99% of the phosphatidylinositol. The ^3 H-labeled diglyceride is not retained […]. The diglyceride is conveniently quantitated by liquid scintillation spectrometry.
The compounds were tested at 300 u in a buffer containing 0.06 mM unlabeled phosphatidylcholine (PC), 20-30,000 cpm of (CPC), 150 mM NaCl, 5 mM CaCl2 and 50 mM tris(hydroxymethyl)methylaminopropanesulfonic acid buffer, adjusted to pH 9.0 with 1N NaOH. The temperature of the buffer was maintained at a temperature of 37° C. The reaction was initiated by addition of the enzyme and it was terminated 10 minutes later by addition of 1 ml of 1N HCl.
Following acidification, the samples were extracted with 2 ml of isopropyl alcohol and 2 ml of hexane, vortexed and allowed to stand until the phases separate. […] and some unreacted substrate were taken up in the isopropanol-saturated hexane. The hexane phase of the extraction mixture was transferred to a short silica gel column which retains unreacted phosphatidylinositol, but not the 3H-diglyceride. The column effluent was collected directly in scintillation vials. The columns were washed once with additional 2 ml of hexane. The radiolabelled diglycerides were quantitated by liquid scintillation.

A further assay concerns the target cyclooxygenase. Kind of assay: Production of TXB2 and PGF2 α in rat peritoneal leukocyte homogenate (cyclooxygenase). It is filed as biochemical. To be noted: read-out: Cyclox, I50. The text has this: Another assay has been developed to test the ability of the invented compounds on the activity of cyclooxygenase, which is one of the enzymes metabolizing arachidonic acids. By-products of arachidonic acid metabolism include thromboxanes, a type of which is designated as TXB2, and protoglandins, a class of which is known as PGF2 α. As indicated, supra, these by-products promote inflammatory response to a host of offending stimuli. The following protocol describes a procedure for testing the inhibitory effect on the production of TXB2 and PGF2 α.
Protocol for Detecting the Production of TXB2 and PGF2 α.
A suspension of glycogen elicited rat peritoneal leukocyte-homogenate in buffer is incubated with (^14 C)-arachidonic acid (AA), epinephrine and glutathione for 30 minutes at 37°. The reaction is quenched with 2M citric acid, and a trace amount of (^3 H)-TXB2 and an excess of unlabeled TXB2 and PGF2 α are added to each tube. […] Strips containing the spots are cut out, placed in scintillation vials and the radioactive content is quantitated in a liquid scintillation spectrometer.
After adjusting for the extraction efficiency, the amount (pmole) of (^14 C)-TXB2 and PGF2 α in each of the tubes is calculated. […] The ability of the test compounds to modulate the activity of this enzyme is determined by a decrease or increase in the net amount of TXB2 and PGF2 α produced.

With `CCC(=CC=Cc1cn(Cc2ccccc2)c2ccccc12)C(=O)O` [Example 9, 5-(1-Benzylindol-3-yl)-2-Ethyl-2,4-Pentadienoic Acid], the results for the IC50 on 5-lipoxygenase, with Phospholipase C (PLC) and at cyclooxygenase were 2300 nM, 37 µM and 15 µM, respectively.
